Test results as given in ChEMBL document CHEMBL1130192, “Synthesis and antiviral activity of C2 analogs of enviroxime: an exploration of the role of critical functionality” (J Med Chem, 1997).
Converted amounts (≈) assume the structure as drawn.

Experiments:
[1] = system: HeLa; assay: Antiviral activity against Poliovirus (PV-1) in HeLa cells using CPE/XTT assay; type: functional, cell-based; settings: Homo sapiens
[2] = system: HeLa; assay: Antiviral activity against Rhinovirus (RV-14) in HeLa cells using CPE/XTT assay; type: functional, cell-based; settings: Homo sapiens
[3] = system: HeLa; assay: Antiviral activity against Rhinovirus (RV-16) in HeLa cells using CPE/XTT assay; type: functional, cell-based; settings: Homo sapiens
[4] = system: HeLa; assay: Antiviral activity against Rhinovirus (RV-2) in HeLa cells using CPE/XTT assay; type: functional, cell-based; settings: Homo sapiens
[5] = system: HeLa; assay: Antiviral activity against Coxsackievirus (CoxA21) in HeLa cells using CPE/XTT assay; type: functional, cell-based; settings: Homo sapiens
[6] = system: HeLa; assay: Antiviral activity against Rhinovirus (RV-2) in HeLa cells using CPE/XTT assay in HeLa cells using CPE/XTT assay; type: functional, cell-based; settings: Homo sapiens
[7] = system: BSC-1; assay: Antiviral activity against Poliovirus (PV-1) using plaque reduction assay in BSC1 cells; type: functional, cell-based, Cercopithecidae; settings: Chlorocebus aethiops
[8] = system: BSC-1; assay: Antiviral activity against Poliovirus (PV-1) using plaque reduction assay using BSC1 cells; type: functional, cell-based, Cercopithecidae; settings: Chlorocebus aethiops
[9] = system: HeLa; assay: Antiviral activity against Coxsackie virus (CoxA21) in HeLa cells using CPE/XTT assay; type: functional, cell-based; settings: Homo sapiens

SMILES	IC50 [1] [µg/mL]	IC50 [2] [µg/mL]	IC50 [3] [µg/mL]	IC50 [4] [µg/mL]	IC50 [5] [µg/mL]	IC50 [6] [µg/mL]	IC50 [7] [µg/mL]	IC50 [8] [µg/mL]	IC50 [9] [µg/mL]
Cc1nc2ccc(/C(=N/O)c3ccccc3)cc2n1S(=O)(=O)C(C)C	0.23 (≈ 0.643 µM)	0.34 (≈ 0.951 µM)	0.18 (≈ 0.504 µM)	0.24 (≈ 0.671 µM)	0.05 (≈ 0.14 µM)				
CC(C)S(=O)(=O)n1c(N(C)C)nc2ccc(/C(=N/O)c3ccccc3)cc21	4.55 (≈ 11.8 µM)	49 (≈ 127 µM)	0.64 (≈ 1.66 µM)	30.3 (≈ 78.4 µM)	2.19 (≈ 5.67 µM)				
CC(C)S(=O)(=O)n1cnc2ccc(/C(=N/O)c3ccccc3)cc21	0.57 (≈ 1.66 µM)	0.53 (≈ 1.54 µM)	0.16 (≈ 0.466 µM)		0.12 (≈ 0.349 µM)	0.19 (≈ 0.553 µM)			
COc1nc2ccc(/C(=N/O)c3ccccc3)cc2n1S(=O)(=O)C(C)C	0.57 (≈ 1.53 µM)	0.48 (≈ 1.29 µM)	0.18 (≈ 0.482 µM)	0.54 (≈ 1.45 µM)	0.17 (≈ 0.455 µM)				
CSc1nc2ccc(/C(=N/O)c3ccccc3)cc2n1S(=O)(=O)C(C)C	0.59 (≈ 1.51 µM)	0.76 (≈ 1.95 µM)	0.18 (≈ 0.462 µM)	0.69 (≈ 1.77 µM)	0.18 (≈ 0.462 µM)				
CC(C)n1c(N)nc2ccc(/C(=N/O)c3ccccc3)cc21							0.09 (≈ 0.306 µM)		
CNc1nc2ccc(/C(=N/O)c3ccccc3)cc2n1S(=O)(=O)C(C)C	6.16 (≈ 16.5 µM)	24.4 (≈ 65.5 µM)	1.49 (≈ 4 µM)	54.8 (≈ 147 µM)	7.11 (≈ 19.1 µM)				
CC(C)S(=O)(=O)n1c(N)nc2ccc(/C(=N/O)c3ccccc3)cc21 [ENVIROXIME]	0.06 (≈ 0.167 µM)	0.04 (≈ 0.112 µM)	0.04 (≈ 0.112 µM)	0.07 (≈ 0.195 µM)				0.02 (≈ 0.0558 µM)	0.05 (≈ 0.139 µM)
